From PubChem BioAssay (NCI)
“And” between values parts separate entries of the source, which are not always exact repeats. Identical values can stand only once.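 Five concentrations, 48 hours, 96-well plates. Abbreviation: GI50, concentration required for 50% inhibition of growth. The concentration for full growth arrest is given as TGI.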

Columns and labels:
Test in all cases: inhibition of tumour cell growth, NCI panel, 48 h
LXFL 529 NSCLC = system: LXFL 529 NSCLC
SNB-78 CNS = system: SNB-78 CNS
DMS 273 small cell lung = system: DMS 273 small cell lung
BT-549 breast = system: BT-549 breast
MDA-N = system: MDA-N
DMS 114 small cell lung = system: DMS 114 small cell lung
HOP-18 NSCLC = system: HOP-18 NSCLC
XF 498 CNS = system: XF 498 CNS

SMILES	TGI (LXFL 529 NSCLC) [µM]	TGI (SNB-78 CNS) [µM]	TGI (DMS 273 small cell lung) [µM]	GI50 (BT-549 breast)	TGI (BT-549 breast)	TGI (DMS 114 small cell lung) [µM]	also measured
CC(C)C(=O)[O-].CC(C)C(=O)[O-].N.N.N.N.[Co+3].[O-][Cl+3]([O-])([O-])[O-]	> 100	> 100	> 100				GI50 (LXFL 529 NSCLC): > 100 µM; GI50 (SNB-78 CNS): > 100 µM; GI50 (DMS 273 small cell lung): > 100 µM
Nc1nccc2c1ncn2C1OC(CO)C(O)C1O (configuration not stated)				88.8 µM	> 100 µM		
OCC(CCc1c[nH]c2ccccc12)c1c[nH]c2ccccc12 (configuration not stated)					30.5 µM		TGI (MDA-N): 31 µM
NS(=O)(=O)c1ccc(-n2ncc3c(Nc4ccccc4)ncnc32)cc1				30.3 µM	92.8 µM		
CC(=O)[O-].[Zn].c1ccc(/C(=N\Nc2ccccn2)c2ccccn2)cc1	1.79	12.5	1.88			0.0192	TGI (HOP-18 NSCLC): 0.918 µM
CCOC(=O)c1ccc(N2C(=O)Cc3ccccc3C2=O)cc1	> 100	> 100	> 100			> 100	
CCOC(=O)C1=C(Nc2ccc(Br)cc2)OC/C1=N\NC(=O)c1ccccc1O	> 100	> 79.7	17				TGI (HOP-18 NSCLC): > 100 µM
O=C(N/N=C/c1ccc(Cl)cc1Cl)c1ccc2nc(-c3ccc(Cl)cc3)[nH]c2c1				4.93 µM	21.3 µM		
CC(C)CC12CC3CCC(CNC1=O)C32C (configuration not stated)	> 100	> 100	> 100			> 100	TGI (XF 498 CNS): > 100 µM; TGI (HOP-18 NSCLC): > 100 µM
C[C@@H](COCCC(=O)N1CCN(c2ncc(C(F)(F)F)cn2)CC1)Nc1cn[nH]c(=O)c1C(F)(F)F				0.078 µM	> 100 µM		
CCn1c(=O)c2ccccc2n2c(=O)c3cc4ccccc4cc3nc12	> 100	> 100	> 100			> 100	TGI (XF 498 CNS): 49 µM
Cc1ccc2nc(-c3ccc(N)c4ccccc34)[nH]c2c1				0.399 µM	21.1 µM		
CCCCCCCCCCCCCCCCCCOc1ccccc1CC(=O)NCC[N+](C)(C)C				3.25 µM	> 100 µM		
Cc1nc2c(N3CCCC3)nc(N3CCNCC3)nc2nc1NCc1ccccc1				5.05 µM	10.7 µM and 14.8 µM		GI50 (MDA-N): 4.38 µM; TGI (MDA-N): 9.44 µM and 3.28 µM
CS/C(c1ccccc1)=[N+](\[O-])Cc1ccccc1	> 100	> 100				> 100	TGI (XF 498 CNS): > 100 µM; TGI (HOP-18 NSCLC): > 100 µM
CC(=O)/C=C1\CC(=O)Nc2ccccc2N1	> 100	> 100				> 100	
CCC1(NC(=O)c2cc(F)c(F)c(F)c2F)C(=O)NC(=O)N(C(C)C)C1=O (configuration not stated)				20 µM	44.1 µM		
COc1ccc2c(c1)c(-c1ccc(-c3cn(C)c4ccc(OC)cc34)[nH]1)cn2C				2.09 µM	5.3 µM		
O=C(NC1C2CC3CC(C2)CC1C3)/C(Cl)=C1/Sc2ccccc2NC1=O (configuration not stated)	> 100	> 100	> 100			> 100	TGI (XF 498 CNS): > 100 µM; TGI (HOP-18 NSCLC): > 100 µM
N#Cc1nc2c(S(=O)(=O)c3ccccc3)c(N)n(Cc3ccc(Cl)cc3)c2nc1C#N				10.8 µM	41.7 µM		
Cc1cc(N(CCCNc2ccnc3cc(Cl)ccc23)Cc2ccc3c(c2)OCO3)nc(N2CCCCC2)n1				2.28 µM	5.95 µM		
COc1cccc(N=N/C(=N\NC(=O)c2cc(Br)ccc2O)c2ccc(N(CCC#N)CCC#N)cc2OC)c1				74.1 µg/mL	> 150 µg/mL		GI50 (MDA-N): 59.3 µg/mL; TGI (MDA-N): > 150 µg/mL
OCC(O)C(O)C(O)c1nn(-c2ccccc2)c2nc3cc(Cl)c(Cl)cc3nc12 (configuration not stated)	> 100	> 100	> 100			> 100	TGI (XF 498 CNS): 69.3 µM; TGI (HOP-18 NSCLC): > 100 µM
COc1ccc(-c2cc(-c3cccc(NS(C)(=O)=O)c3)nc(N)c2C#N)cc1				0.127 µM	12.3 µM		
